# In PMC5717258, “Bioaccumulation of pharmaceuticals and personal care product chemicals in fish exposed to wastewater effluent in an urban wetland” (Scientific Reports, 2017):
# How the values were obtained:
# in vivo = conditions: for concentration at 21 days: goldfish (Carassius auratus)
# Summary of the method: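 Pooled caged-goldfish plasma, wild-fish plasma (2.3–2.5 g) and water samples were spiked with isotope-labelled surrogates, then extracted (acetonitrile sonication for plasma; pH-adjusted water) and cleaned up by HLB SPE. PPCPs were quantified by LC/ESI-MS/MS using isotope dilution. Non-detects were set to ½ DL when the analyte was detected in ≥2 samples.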
# [1] = for Cootes carp plasma, range of concentrations / wild goldfish plasma, range of concentrations: Cootes Paradise Marsh; for plasma concentration, CPM-C 01: Cootes carp 01, 2011, male; for plasma concentration, CPM-C 2: Cootes carp 2, Sep 27, 2011, male; for plasma concentration, CPM-C 10: Cootes carp 10, Sep 28, 2011, female; for plasma concentration, CPM-C 13: Cootes carp 13, Sep 28, 2011, female; for plasma concentration, CPM-C 20: Cootes carp 20, 2011, male; for plasma concentration, CPM-C 36: Cootes carp 36, Oct 3, 2011, female; for plasma concentration, carp, this study (mean) / plasma concentration, goldfish, this study (mean): Table S8; for plasma concentration, CPM wild-01: wild goldfish sample 01, 2012, wet weight; for plasma concentration, CPM wild-02: wild goldfish sample 02, 2012, wet weight; for plasma concentration, CPM wild-03: wild goldfish sample 03, 2012, wet weight
# [2] = Plasma bioaccumulation factor (BAFP), goldfish; assay type: in vivo, goldfish (Carassius auratus)
# Summary of the method: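 BAFP in goldfish was calculated as plasma concentration (ng/g × 1000) divided by water concentration (ng/L).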
# [3] = Plasma bioaccumulation factor (BAFP), carp; assay type: in vivo, carp (Cyprinus carpio)
# Experimental: Bioaccumulation factor (BAFP) was calculated as concentration in fish plasma (ng/g × 1000) divided by concentration in water (ng/L). Two widely used modeling approaches for predicting organic contaminant bioaccumulation were assessed: the BCF-BAF model for whole body BAFs[53] and the fish-plasma concentration calculation of Huggett et al.[35] modified by Berninger et al.[54]. The latter involves estimating an octanol-water partition coefficient (Kow) adjusted for fraction ionized (log D), using the pKa value to adjust log Kow[54] taking into account the pH of CPM waters. Further information on the calculation of log D, blood-water partitioning (PBW), and plasma concentrations (FPC) is given in the SI.
# [4] = set-up: method as in US EPA Chemistry Dashboard; conditions: ref US EPA Chemistry Dashboard; cited from earlier work
# [5] = set-up: method as in Moreno-González et al. 17; conditions: mean ± SD; ref Moreno-González et al. 17; cited from earlier work
# [6] = human, ref Schulz et al.[56], cited from earlier work; for Therapeutic "normal" blood-plasma/serum concentration: converted from µg/mL
# [7] = Jordan Harbour brown bullhead, wet weight
# Summary of the method: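 Pooled caged-fish and wild carp plasma and water samples; plasma spiked with 13C/deuterated surrogate standards, sonicated in acetonitrile, diluted, cleaned by Oasis HLB SPE; water adjusted to pH 2 then pH 4 with EDTA. Quantified by isotope dilution LC/ESI-MS/MS, positive or negative mode, five instrumental runs.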
# [8] = set-up: method as in Brown et al. 11; conditions: ref Brown et al. 11; cited from earlier work
# [9] = cited from earlier work
# [10] = ref Meador et al. 18; cited from earlier work
# [11] = in vivo, plasma concentration, JH caged, Jordan Harbour reference site, 07-2014, pooled plasma, wet weight
# [12] = conc in fish plasma/conc in water
# [13] = range based on range of plasma concentrations
SMILES,concentration at 21 days (in vivo; [11]) [ng/g],"Cootes carp plasma, range of concentrations [1] [ng/g]","wild goldfish plasma, range of concentrations [1]","plasma concentration, CPM-C 01 ([1]; wet weight) [ng/g]","plasma concentration, CPM-C 2 ([1]; wet weight) [ng/g]","plasma concentration, CPM-C 10 ([1]; wet weight) [ng/g]","plasma concentration, CPM-C 13 ([1]; wet weight) [ng/g]","plasma concentration, CPM-C 20 ([1]; wet weight) [ng/g]","plasma concentration, CPM-C 36 ([1]; wet weight) [ng/g]","plasma concentration, carp, this study (mean) [1]","plasma concentration, goldfish, this study (mean) [1]","plasma concentration, CPM wild-01 [1] [ng/g]","plasma concentration, CPM wild-02 [1] [ng/g]","plasma concentration, CPM wild-03 [1] [ng/g]",log Kow [4],"Therapeutic ""normal"" blood-plasma/serum concentration [6] [ng/mL]",also measured
COc1ccc(C(CN(C)C)C2(O)CCCCC2)cc1 (stereo not shown) [Venlafaxine],< 0.08,0.04 to 0.27,0.04 to 0.17 ng/g,0.042,0.086,0.061,0.063,0.268,0.057,0.10 ng/g wet weight or ng/mL for plasma,0.11 ng/g wet weight or ng/mL for plasma,0.039,0.258,0.042,3.28,100 to 400,"concentration at 21 days (in vivo; in vivo, caged goldfish plasma, range of concentrations, Cootes Paradise Marsh, range): 0.04 to 0.26 ng/g; concentration at 21 days (in vivo; in vivo, plasma concentration, CPM1 caged, CPM1, 07-2014, pooled plasma, wet weight): 0.165 ng/g; concentration at 21 days (in vivo; in vivo, plasma concentration, CPM2 caged, CPM2, 07-2014, pooled plasma, wet weight): 0.039 ng/g; concentration at 21 days (in vivo; in vivo, plasma concentration, CPM3 caged, CPM3, 07-2014, pooled plasma, wet weight): 0.041 ng/g; plasma concentration, JH-C 54 ([1]; Jordan Harbour carp 54, Nov 7, 2011, male, wet weight): 0.042 ng/g; plasma concentration, JH-C 73 ([1]; Jordan Harbour carp 73, Nov 7, 2011, female, wet weight): 0.041 ng/g; plasma concentration, JH-C 74 ([1]; Jordan Harbour carp 74, Nov 7, 2011, male, wet weight): 0.043 ng/g; plasma concentration, JH-C 75 ([1]; Jordan Harbour carp 75, Nov 7, 2011, female, wet weight): 0.060 ng/g; plasma concentration, JH-C 82 ([1]; Jordan Harbour carp 82, Nov 7, 2011, female, wet weight): 0.040 ng/g; BAFP, CPM1 goldfish caged ([2]; CPM1): 3 L/kg; BAFP, CPM3 goldfish caged ([2]; CPM3): 52 L/kg; BAFP at CPM3, wild goldfish, average [2, 12]: 14 L/kg; BAFP at CPM3, wild goldfish, range [2, 13]: 5 to 31 L/kg; BAFP at JH, carp, average ([3]; Jordan Harbour): 64 L/kg; BAFP at CPM3, carp, average [3, 12]: 12 L/kg; BAFP at CPM3, carp, range [3, 13]: 5 to 32 L/kg; liver & muscle concentration, mullet [5]: 0.68 ± 1.3 ng/g wet weight or ng/mL for plasma; toxic dose (toxic blood-plasma/serum concentration) [6]: 1000 to 1500 ng/mL"
Cc1ccc(C)c(OCCCC(C)(C)C(=O)O)c1 [Gemfibrozil],< 0.3,0.16 to 0.83,0.15–0.15 ng/g,0.158,0.724,0.227,0.234,0.162,0.827,0.39 ng/g wet weight or ng/mL for plasma,0.46 ng/g wet weight or ng/mL for plasma,0.147,0.387,0.86,4.14,~25000,"plasma concentration, CPM1 caged (in vivo; CPM1, 07-2014, pooled plasma, wet weight): 0.15 ng/g; plasma concentration, CPM3 caged (in vivo; CPM3, 07-2014, pooled plasma, wet weight): 0.15 ng/g; concentration at 21 days (in vivo; plasma, caged goldfish plasma, range of concentrations, Cootes Paradise Marsh, range): 0.15 to 0.86 ng/g; concentration at 21 days (in vivo; plasma, plasma concentration, CPM1 caged, CPM1, 07-2014, pooled plasma, wet weight): 0.147 ng/g; concentration at 21 days (in vivo; plasma, plasma concentration, CPM2 caged, CPM2, 07-2014, pooled plasma, wet weight): 0.146 ng/g; concentration at 21 days (in vivo; plasma, plasma concentration, CPM3 caged, CPM3, 07-2014, pooled plasma, wet weight): 0.154 ng/g; Carp plasma concentration, this study (range) ([1]; Table S7): 0.16 to 0.83 ng/g; Goldfish plasma concentration, this study (range) ([1]; Table S7): 0.15 to 0.86 ng/g; plasma concentration, JH-BB [7]: < 0.57 ng/g; BAFP, CPM2 goldfish caged ([2]; CPM2, water sample of August 2012): 27 L/kg; plasma concentration, rainbow trout [8]: <8-210 ng/g wet weight or ng/mL for plasma; Salmon (whole body) concentration ([9]; Table S7, ref Meador et al. (2016)): 1.3 ng/g; whole fish concentration, salmon ([9]; ref Meador et al. 18): 1.3 ng/g wet weight or ng/mL for plasma; whole fish concentration, sculpin [10]: < mdl"
